The source of these data is PMC7695835, “Pharmacological characterisation of novel adenosine A3 receptor antagonists” (Scientific Reports, 2020).

The target of assay [1] is T1, A3R (Homo sapiens, UniProt P0DMS8).
T1 sequence (P0DMS8 1-318): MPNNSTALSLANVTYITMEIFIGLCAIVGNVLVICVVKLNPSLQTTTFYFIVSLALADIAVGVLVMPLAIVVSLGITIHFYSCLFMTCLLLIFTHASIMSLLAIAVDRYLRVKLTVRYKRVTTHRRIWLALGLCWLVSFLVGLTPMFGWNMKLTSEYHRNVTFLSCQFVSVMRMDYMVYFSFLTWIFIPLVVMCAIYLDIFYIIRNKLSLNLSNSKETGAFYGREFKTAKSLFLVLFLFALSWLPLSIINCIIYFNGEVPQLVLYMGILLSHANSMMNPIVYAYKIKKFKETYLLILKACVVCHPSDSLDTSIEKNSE
The settings on record: for cAMP accumulation Mean: 10 μM forskolin + NECA IC80 (3.16 nM) + 1 μM compound, mean ± SEM, n = 3; for cAMP accumulation Mean difference between 'NECA' and compound: 10 μM forskolin + NECA IC80 + 1 μM compound; for outcome of cAMP-based screen: 1 μM compound. (In general: cAMP levels reflect the balance of adenylyl cyclase and phosphodiesterase activity.)

Assay [2] has as its target T1, A3R. To be noted: 1 nM [3H]HEMADO; ref Lagarias et al.[19]; read-out: Radioligand binding Ki A3R; cited from earlier work.
For a further assay, the target named is T2, A1R (Homo sapiens, UniProt P30542).
T2 construct: expressed in transfected cells
T2 sequence (P30542 1-326): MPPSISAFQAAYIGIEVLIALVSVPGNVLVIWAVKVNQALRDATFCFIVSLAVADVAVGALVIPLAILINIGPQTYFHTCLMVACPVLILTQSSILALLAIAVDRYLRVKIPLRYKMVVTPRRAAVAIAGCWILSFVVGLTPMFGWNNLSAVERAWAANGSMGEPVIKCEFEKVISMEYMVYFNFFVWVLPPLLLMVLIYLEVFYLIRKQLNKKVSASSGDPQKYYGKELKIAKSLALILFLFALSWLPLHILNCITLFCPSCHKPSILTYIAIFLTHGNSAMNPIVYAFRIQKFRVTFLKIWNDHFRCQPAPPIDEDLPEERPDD
Also on record: method as in Lagarias et al.[19]. The settings on record: 1 nM [3H]CCPA; ref Lagarias et al.[19]; read-out: Radioligand binding Ki A1R; cited from earlier work.

A further assay addresses T3, A2AR (Homo sapiens, UniProt P29274).
T3 construct: expressed in transfected cells; host or cells: CHO cells, membrane preparation
Also on record: method as in Lagarias et al.[19]. To be noted: 10 nM [3H]NECA; ref Lagarias et al.[19]; read-out: Radioligand binding Ki A2AR; cited from earlier work.

Assay [3] concerns the target T1, A3R. Kind of assay: NECA stimulated cAMP inhibition in A3R Flp-In CHO cells. The assay is classed as cell-based. To be noted: for Span: difference between Emin and basal; for Emin: lower plateau of NECA curve; for effect on NECA potency / antagonism: 1 μM compound; for effect on NECA potency / antagonism / effect on NECA potency: preliminary data; for Basal: upper plateau of NECA curve; for effect on NECA potency: 10 μM compound.

Setting [4] is: 1 µM compound + 10 µM forskolin only.
[5] abbreviates: 10 µM compound + 10 µM forskolin only.

T3 sequence (P29274 whole entry): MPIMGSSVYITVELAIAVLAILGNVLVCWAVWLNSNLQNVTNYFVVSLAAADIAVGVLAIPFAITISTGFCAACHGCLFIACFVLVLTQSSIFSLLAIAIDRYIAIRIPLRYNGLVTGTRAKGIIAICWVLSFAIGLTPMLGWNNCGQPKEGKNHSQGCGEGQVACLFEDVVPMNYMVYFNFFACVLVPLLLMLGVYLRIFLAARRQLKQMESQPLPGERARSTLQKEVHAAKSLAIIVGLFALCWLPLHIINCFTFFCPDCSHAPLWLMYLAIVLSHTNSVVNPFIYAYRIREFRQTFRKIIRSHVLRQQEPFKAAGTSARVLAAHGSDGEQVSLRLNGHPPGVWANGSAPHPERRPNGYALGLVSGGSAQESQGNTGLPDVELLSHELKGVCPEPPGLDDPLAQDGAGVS

On to `O=C(Nc1ccc(OC(F)(F)F)cc1)Nc1cc(-c2cccs2)n[nH]1` [Compound K6], for which the “cAMP accumulation Mean” value on A3R [1] turned out to be 64.01 ±5.22 %10 μM forskolin response. For the same compound, at A3R [1], the “cAMP accumulation Mean difference between 'NECA' and compound” value is on record as -3.69 %10 μM forskolin response. Besides, the Ki on A3R [2] is 30.6 µM; at A1R, above 100 µM; on A2AR, above 100 µM.
`Cc1onc(-c2ccccc2Cl)c1C(=O)O/N=C(\N)c1ccncc1` [Compound K11]: the results for the Ki at A1R and at A2AR were above 60 µM and 30 µM, respectively.
As for `CC(C)(C)c1ccc(/C(N)=N/OC(=O)c2cnn(-c3ccccc3)c2C(F)(F)F)cc1` [Compound K24], the “True Basal” value at A3R [3] (setting [4]) was found to be 103.6 ±7.7. Moreover, on A3R [3] (1 µM compound), the Span was determined as 103.7 ±7.9; the Emin was 5.9 ±6.5 % 10 µM forskolin response relative to NECA response; the Basal is given as 109.5 ±4.9 % 10 µM forskolin inhibition, relative to NECA. At A3R [3], the “effect on NECA potency / antagonism” value is “no effect” and the “effect on NECA potency” value was “reduce the NECA potency”. Further, the “True Basal” value at A3R [3] (setting [5]) is on record as 117.7 ±0.9. At A3R [3] (10 µM compound), the Span is given as 107.4 ±5.7; the Emin was 23.4 ±4.5 % 10 µM forskolin response relative to NECA response; the Basal is given as 130.8 ±3.3 % 10 µM forskolin inhibition, relative to NECA. In addition, at A3R [1], the “outcome of cAMP-based screen” value was “no activity”; the “cAMP accumulation Mean” value was determined as 51.39 ±3.11 %10 μM forskolin response; the “cAMP accumulation Mean difference between 'NECA' and compound” value is recorded as 8.93 %10 μM forskolin response. Also, the Ki on A3R [2] was 5.39 µM. Also, the Ki on A1R was 7.48 µM. Also, at A2AR, the inhibition constant Ki is above 100 µM.
In the case of `COc1ccc(CSC(=N)Nc2ccccc2Cl)cc1.Cl` [Compound K2], on A3R [1], the “cAMP accumulation Mean” value is on record as 68.28 ±2.94 %10 μM forskolin response. Moreover, the “cAMP accumulation Mean difference between 'NECA' and compound” value on A3R [1] was -7.96 %10 μM forskolin response. The Ki on A3R [2] was 16.6 µM; at A1R it was above 100 µM; on A2AR, 61.3 µM.
For `COc1ccccc1N=C(N)SCc1ccccc1` [Compound K19], at A3R [1], the “cAMP accumulation Mean” value is reported as 64.58 ±4.94 %10 μM forskolin response. Further, the “cAMP accumulation Mean difference between 'NECA' and compound” value at A3R [1] was -4.26 %10 μM forskolin response. Also, the Ki at A3R [2], at A1R and on A2AR was above 100 µM in each case.
As for `COc1cccc(C=NNC(=O)c2cc(-c3ccccc3)sc2N)c1` [Compound K21], the “True Basal” value at A3R [3] (setting [4]) stood at 101.6 ±5.1. In addition, on A3R [3] (1 µM compound), the Span is 119.4 ±9.4; the Emin is reported as 2.0 ±7.6 % 10 µM forskolin response relative to NECA response; the Basal is reported as 121.5 ±6.1 % 10 µM forskolin inhibition, relative to NECA. In addition, at A3R [3], the “effect on NECA potency / antagonism” value is “no effect” and the “effect on NECA potency” value is “reduce the NECA potency”. Besides, the “True Basal” value at A3R [3] (setting [5]) is recorded as 118.6 ±4.8. Moreover, at A3R [3] (10 µM compound), the Span came out at 104.6 ±7.7; the Emin is reported as 30.1 ±6.8 % 10 µM forskolin response relative to NECA response; the Basal is reported as 134.7 ±4.3 % 10 µM forskolin inhibition, relative to NECA. For the same compound, on A3R [1], the “outcome of cAMP-based screen” value was “no activity”; the “cAMP accumulation Mean” value turned out to be 73.54 ±2.98 %10 μM forskolin response; the “cAMP accumulation Mean difference between 'NECA' and compound” value is recorded as -13.22 %10 μM forskolin response. In addition, on A3R [2], the Ki was 5.77 µM. Further, on A1R, the inhibitory constant (Ki) is above 100 µM. In addition, at A2AR, the Ki is 3.93 µM.
In the case of `Nc1sc(-c2ccccc2)cc1C(=O)NN=Cc1ccccc1` [Compound K22], the “True Basal” value at A3R [3] (setting [4]) stood at 101.9 ±8.4. At A3R [3] (1 µM compound), the Span was 120.9 ±8.8; the Emin is listed as 0.4 ±7.1 % 10 µM forskolin response relative to NECA response; the Basal is 121.3 ±5.8 % 10 µM forskolin inhibition, relative to NECA. Moreover, on A3R [3], the “effect on NECA potency / antagonism” value is recorded as “no effect” and the “effect on NECA potency” value was “reduce the NECA potency”. The “True Basal” value on A3R [3] (setting [5]) turned out to be 124.5 ±8.2. Besides, at A3R [3] (10 µM compound), the Span was 97.5 ±8.0; the Emin was 41.6 ±7.1 % 10 µM forskolin response relative to NECA response; the Basal was 139.1 ±4.2 % 10 µM forskolin inhibition, relative to NECA. Moreover, at A3R [1], the “outcome of cAMP-based screen” value is “no activity”; the “cAMP accumulation Mean” value is 70.56 ±3.64 %10 μM forskolin response; the “cAMP accumulation Mean difference between 'NECA' and compound” value was -10.24 %10 μM forskolin response. Further, the Ki on A3R [2] is 5.16 µM. Besides, at A1R, the Ki is 15.2 µM. In addition, at A2AR, the Ki is 4.59 µM.
With `COc1ccc(CCNC(=O)c2c(N)sc3c2CCC3)cc1OC` [Compound K13], the “cAMP accumulation Mean” value at A3R [1] is 56.25 ±1.44 %10 μM forskolin response. Moreover, the “cAMP accumulation Mean difference between 'NECA' and compound” value at A3R [1] is 4.07 %10 μM forskolin response. In addition, the Ki at A3R [2] is 16.5 µM; at A1R, above 30 µM; at A2AR, above 60 µM.
As for `NC(=NNC(=O)Nc1ccc(Cl)cc1)c1ccc(C(F)(F)F)cn1` [Compound K4], the “cAMP accumulation Mean” value on A3R [1] came to 59.06 ±0.13 %10 μM forskolin response. Besides, at A3R [1], the “cAMP accumulation Mean difference between 'NECA' and compound” value was determined as 1.26 %10 μM forskolin response. Further, the Ki on A3R [2], on A1R and on A2AR was above 100 µM throughout.
Turning to `NNC(=O)c1sc(-c2ccccc2)cc1N` [Compound K16], the “cAMP accumulation Mean” value at A3R [1] is listed as 51.51 ±4.91 %10 μM forskolin response. In addition, the “cAMP accumulation Mean difference between 'NECA' and compound” value on A3R [1] came out at 8.81 %10 μM forskolin response. For the same compound, the values for the Ki at A3R [2], at A1R and on A2AR were 19.7 µM, above 30 µM and 31.7 µM, respectively.
Regarding `NC(=NOC(=O)c1csnn1)c1ccc(-c2csnn2)cc1` [Compound K3], on A3R [1], the “cAMP accumulation Mean” value is 63.37 ±2.66 %10 μM forskolin response. Further, the “cAMP accumulation Mean difference between 'NECA' and compound” value at A3R [1] was -3.05 %10 μM forskolin response. The Ki at A3R [2], at A1R and on A2AR was above 100 µM each time.
For `CCOC(=O)CC(=O)Nc1ccsc1C(N)=O` [Compound K28], at A3R [1], the “cAMP accumulation Mean” value was 64.14 ±1.73 %10 μM forskolin response. Also, the “cAMP accumulation Mean difference between 'NECA' and compound” value on A3R [1] is reported as -3.82 %10 μM forskolin response. Besides, the Ki is above 100 µM at A3R [2], 18 µM on A1R and 30 µM at A2AR.
With `COc1ccc(CCNC(=O)c2c(N)sc3c2CCCC3)cc1OC` [Compound K14], the “cAMP accumulation Mean” value at A3R [1] is 61.09 ±3.04 %10 μM forskolin response. Moreover, the “cAMP accumulation Mean difference between 'NECA' and compound” value on A3R [1] is -0.77 %10 μM forskolin response. Besides, the Ki on A3R [2] was 14.8 µM; on A1R it was above 30 µM; at A2AR, above 60 µM.
For `Cc1cccc(/C(N)=N/OC(=O)c2c(-c3ccccc3Cl)noc2C)c1` [Compound K15], the Ki at A1R and on A2AR was above 100 µM throughout.
As to `Nc1sccc1C(=O)NCCc1ccccc1` [Compound K12], on A3R [1], the “cAMP accumulation Mean” value stood at 59.66 ±0.98 %10 μM forskolin response. Moreover, the “cAMP accumulation Mean difference between 'NECA' and compound” value at A3R [1] was 0.66 %10 μM forskolin response. The Ki on A3R [2] was 37.1 µM; at A1R, above 100 µM; on A2AR, above 60 µM.
Consider `Cc1nc(C(N)=NOC(=O)c2c(-c3ccccc3)noc2C)cs1` [Compound K5], for which the Ki at A1R was above 100 µM; on A2AR, 21.8 µM.
As for `Cc1onc(-c2ccccc2Cl)c1C(=O)O/N=C(\N)c1ccc(I)cc1` [Compound K9], the results for the Ki at A1R and on A2AR were 6.91 µM and above 100 µM, respectively.
With `CCC(C)CC(=O)Nc1ccsc1C(N)=O` (stereo not drawn) [Compound K35], the “cAMP accumulation Mean” value on A3R [1] is given as 71.56 ±3.54 %10 μM forskolin response. For the same compound, the “cAMP accumulation Mean difference between 'NECA' and compound” value on A3R [1] is -11.24 %10 μM forskolin response. Moreover, the values for the Ki on A3R [2], on A1R and on A2AR were 27.4 µM, 7.33 µM and above 30 µM, respectively.

A word on the Ki: it is the equilibrium dissociation constant of an inhibitor or competing ligand from its target.
